The experiment has as its target human MER (528-end) (Homo sapiens (Human), UniProt Q12866). In words: HTRF Kinase Activity Biochemical Assay (KinEASE-TK). As to conditions: 10 uM ATP. How it is done:
For the SAR (structure-activity relationship) and compound screening, HTRF (Homogeneous Time Resolved Fluorescence) kinase activity assay was employed for all MER, AXL and TYRO3 kinases using Cisbio HTRF® KinEASE™-TK kit (Cisbio, USA). The kit includes biotin-labeled TK substrate, streptavidin-XL665, Eu3+-cryptate-labeled TK antibody and HTRF® Detection buffer. There are two main steps in the kinase assay: kinase reaction and detection of phosphorylated substrate. The reaction was carried out in white low volume 384-well plate (Corning, USA) with 25 nL compound in dimethyl sulfoxide in each well. […] Then the reaction was stopped after 1 hour incubation at room temperature by adding 5 uL of HTRF® Detection buffer which also contains 0.375 nM Eu3+-cryptate-labeled TK antibody and 0.062 uM streptavidin-XL665(SA-XL665) to allow for detection of the phosphorylated peptide product. After 1 h incubation at room temperature, the fluorescence intensity was measured with Envision™ plate reader (PerkinElmer, USA). Upon excitation at 340 nm by UV, the energy from Eu3+ donor of the antibody is transferred to the FRET acceptor XL665, and […] emits light at 665 nm. The level of kinase activity was quantified by the HTRF ratio that calculated from the intensity of emission at 665 nm and emission at 620 nm (fluorescence intensity @ 665 nm/fluorescence intensity @ 620 nm×10,000). The recombinant protein of human MER (528-end) was purchased from Carnabio, Japan. The recombinant human AXL (473-end) and TYRO3 (455-end) were purchased from SignalChem, Canada.
(Time-resolved FRET reads energy transfer from a long-lived donor to a nearby acceptor.)

From patent US12378224B2 (Dong-A Socio Holdings Co., Ltd., priority 2016, dated 2025) come the findings set out here.

Sequence of human MER (528-end) (Q12866 528-999 limits assumed): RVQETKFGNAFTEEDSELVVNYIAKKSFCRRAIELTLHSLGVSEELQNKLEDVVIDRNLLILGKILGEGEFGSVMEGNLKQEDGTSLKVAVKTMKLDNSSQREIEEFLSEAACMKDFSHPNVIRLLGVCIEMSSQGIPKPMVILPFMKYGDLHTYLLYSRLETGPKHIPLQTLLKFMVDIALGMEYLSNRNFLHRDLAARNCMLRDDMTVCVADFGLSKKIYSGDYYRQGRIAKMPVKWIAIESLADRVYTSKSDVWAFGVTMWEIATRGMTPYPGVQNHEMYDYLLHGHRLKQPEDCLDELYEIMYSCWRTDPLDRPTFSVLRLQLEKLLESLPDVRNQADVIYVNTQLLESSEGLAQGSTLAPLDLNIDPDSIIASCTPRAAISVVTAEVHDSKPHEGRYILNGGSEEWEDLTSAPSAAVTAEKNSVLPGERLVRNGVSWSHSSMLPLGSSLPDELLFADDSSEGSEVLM

In general, IC50 refers to the midpoint of a concentration-inhibition curve. In the case of “2-amino-N—((R)-1-(3-(((R)-2-(hydroxymethyl)pyrrolidin-1-yl)methyl)-[1,1′-biphenyl]-3-carbonyl)pyrrolidin-3-yl)-5-(1-methyl-1H-pyrazol-4-yl)nicotinamide [Example 462]”, the IC50 was more than 1000 nM. For the molecule `Cn1cc(-c2cnc(N)c(C(=O)N[C@@H]3CCN(C(=O)Nc4cccc(F)c4)C3)c2)cn1` [Example 2, (R)-2-amino-N-(1-((3-fluorophenyl)carbamoyl)pyrrolidin-3-yl)-5-(1-methyl-1H-pyrazol-4-yl)nicotinamide], the IC50 is more than 1000 nM. To `Cn1cc(-c2cnc(N)c(C(=O)N[C@@H]3CCN(C(=O)Nc4ccc(F)c(F)c4)C3)c2)cn1` [Example 3, (R)-2-amino-N-(1-((3,4-difluorophenyl)carbamoyl)pyrrolidin-3-yl)-5-(1-methyl-1H-pyrazol-4-yl)nicotinamide] belongs more than 1000 nM; to `Cc1cc(C)cc(NC(=O)N2CC[C@@H](NC(=O)c3cc(-c4cnn(C)c4)cnc3N)C2)c1` [Example 4, (R)-2-amino-N-(1-((3,5-dimethylphenyl)carbamoyl)pyrrolidin-3-yl)-5-(1-methyl-1H-pyrazol-4-yl)nicotinamide], more than 1000 nM; to `Cn1cc(-c2cnc(N)c(C(=O)N[C@@H]3CCN(C(=O)Nc4cc(C(F)(F)F)cc(C(F)(F)F)c4)C3)c2)cn1` [Example 5, (R)-2-amino-N-(1-((3,5-bis(trifluoromethyl)phenyl)carbamoyl)pyrrolidin-3-yl)-5-(1-methyl-1H-pyrazol-4-yl)nicotinamide], more than 1000 nM.

As for `Cn1cc(-c2cnc(N)c(C(=O)N[C@@H]3CCN(C(=O)Nc4ccc(C(F)(F)F)cc4)C3)c2)cn1` [Example 6, (R)-2-amino-5-(1-methyl-1H-pyrazol-4-yl)-N-(1-((4-(trifluoromethyl)phenyl)carbamoyl)pyrrolidin-3-yl)nicotinamide], the IC50 is more than 1000 nM. `CC(C)NC(=O)N1CC[C@@H](NC(=O)c2cc(-c3cnn(C)c3)cnc2N)C1` [Example 8, (R)-2-amino-N-(1-(isopropylcarbamoyl)pyrrolidin-3-yl)-5-(1-methyl-1H-pyrazol-4-yl)nicotinamide] registered an IC50 of more than 1000 nM. Turning to `Cn1cc(-c2cnc(N)c(C(=O)N[C@@H]3CCN(C(=O)Nc4ccn(C)n4)C3)c2)cn1` [Example 12, (R)-2-amino-N-(1-((1-methyl-1H-pyrazol-3-yl)carbamoyl)pyrrolidin-3-yl)-5-(1-methyl-1H-pyrazol-4-yl)nicotinamide], the IC50 was more than 1000 nM. `Cn1cc(-c2cnc(N)c(C(=O)N[C@@H]3CCN(C(=O)Nc4cccc(Cl)c4)C3)c2)cn1` [Example 14, (R)-2-amino-N-(1-((3-chlorophenyl)carbamoyl)pyrrolidin-3-yl)-5-(1-methyl-1H-pyrazol-4-yl)nicotinamide]: the IC50 is more than 1000 nM. Molecule `CC(C)Oc1cccc(NC(=O)N2CC[C@@H](NC(=O)c3cc(-c4cnn(C)c4)cnc3N)C2)c1` [Example 16, (R)-2-amino-N-(1-((3-isopropoxyphenyl)carbamoyl)pyrrolidin-3-yl)-5-(1-methyl-1H-pyrazol-4-yl)nicotinamide] gave a 50% inhibitory concentration (IC50) of more than 1000 nM. Regarding `Cn1cc(-c2cnc(N)c(C(=O)N[C@@H]3CCN(C(=O)Nc4cccc(Oc5ccccc5)c4)C3)c2)cn1` [Example 17, (R)-2-amino-5-(1-methyl-1H-pyrazol-4-yl)-N-(1-((3-phenoxyphenyl)carbamoyl)pyrrolidin-3-yl)nicotinamide], the IC50 is 10 to 100 nM.

Molecule `Cn1cc(-c2cnc(N)c(C(=O)N[C@@H]3CCN(C(=O)Nc4ccccc4Oc4ccccc4)C3)c2)cn1` [Example 18, (R)-2-amino-5-(1-methyl-1H-pyrazol-4-yl)-N-(1-((2-phenoxyphenyl)carbamoyl)pyrrolidin-3-yl)nicotinamide] showed an IC50 of more than 1000 nM. The molecule `CCc1cccc(NC(=O)N2CC[C@@H](NC(=O)c3cc(-c4cnn(C)c4)cnc3N)C2)c1` [Example 19, (R)-2-amino-N-(1-((3-ethylphenyl)carbamoyl)pyrrolidin-3-yl)-5-(1-methyl-1H-pyrazol-4-yl)nicotinamide] returned an IC50 of more than 1000 nM. In the case of `Cn1cc(-c2cnc(N)c(C(=O)N[C@@H]3CCN(C(=O)Nc4ccccc4Cl)C3)c2)cn1` [Example 21, (R)-2-amino-N-(1-((2-chlorophenyl)carbamoyl)pyrrolidin-3-yl)-5-(1-methyl-1H-pyrazol-4-yl)nicotinamide], the IC50 is more than 1000 nM. As for `Cn1cc(-c2cncc(C(=O)N[C@@H]3CCN(C(=O)Nc4cc(Cl)cc(Cl)c4)C3)c2)cn1` [Example 22, (R)—N-(1-((3,5-dichlorophenyl)carbamoyl)pyrrolidin-3-yl)-5-(1-methyl-1H-pyrazol-4-yl)nicotinamide], the IC50 is more than 1000 nM. In the case of `Cn1cc(-c2cnc(N)c(C(=O)N[C@@H]3CCN(C(=O)Nc4cccc(-c5ccccc5)c4)C3)c2)cn1` [Example 23, (R)—N-(1-([1,1′-biphenyl]-3-ylcarbamoyl)pyrrolidin-3-yl)-2-amino-5-(1-methyl-1H-pyrazol-4-yl)nicotinamide], the IC50 fell in the range of 100 to 1000 nM. To `Cn1cc(-c2cnc(N)c(C(=O)N[C@@H]3CCN(C(=O)Nc4ccc(Br)cc4)C3)c2)cn1` [Example 25, (R)-2-amino-N-(1-((4-bromophenyl)carbamoyl)pyrrolidin-3-yl)-5-(1-methyl-1H-pyrazol-4-yl)nicotinamide] belongs more than 1000 nM; to `Cn1cc(-c2cnc(N)c(C(=O)N[C@@H]3CCN(C(=O)Nc4cccc(CN5CCOCC5)c4)C3)c2)cn1` [Example 26, (R)-2-amino-5-(1-methyl-1H-pyrazol-4-yl)-N-(1-((3-(morpholinomethyl)phenyl)carbamoyl)pyrrolidin-3-yl)nicotinamide], more than 1000 nM.

The molecule `Cn1cc(-c2cnc(N)c(C(=O)N[C@H]3CCN(C(=O)Nc4ccccc4)C3)c2)cn1` [Example 27, (S)-2-amino-5-(1-methyl-1H-pyrazol-4-yl)-N-(1-(phenylcarbamoyl)pyrrolidin-3-yl)nicotinamide] gave an IC50 of more than 1000 nM. Consider `Cn1cc(-c2cnc(N)c(C(=O)N[C@@H]3CCN(C(=O)N4CCc5c(N)cccc5C4)C3)c2)cn1` [Example 28, (R)-2-amino-N-(1-(5-amino-1,2,3,4-tetrahydroisoquinoline-2-carbonyl)pyrrolidin-3-yl)-5-(1-methyl-1H-pyrazol-4-yl)nicotinamide], for which the IC50 was more than 1000 nM. To `Cn1cc(-c2cnc(N)c(C(=O)N[C@@H]3CCN(C(=O)N4CCc5cccc(Br)c5C4)C3)c2)cn1` [Example 29, (R)-2-amino-N-(1-(8-bromo-1,2,3,4-tetrahydroisoquinoline-2-carbonyl)pyrrolidin-3-yl)-5-(1-methyl-1H-pyrazol-4-yl)nicotinamide] belongs more than 1000 nM; to `Cn1cc(-c2cnc(N)c(C(=O)N[C@@H]3CCN(C(=O)NC4CCCCC4)C3)c2)cn1` [Example 30, (R)-2-amino-N-(1-(cyclohexylcarbamoyl)pyrrolidin-3-yl)-5-(1-methyl-1H-pyrazol-4-yl)nicotinamide], 100 to 1000 nM.

As for `Cn1cc(-c2cnc(N)c(C(=O)N[C@@H]3CCN(C(=O)N[C@@H]4CCCC[C@@H]4O)C3)c2)cn1` [Example 31, 2-amino-N—((R)-1-(((1R,2S)-2-hydroxycyclohexyl)carbamoyl)pyrrolidin-3-yl)-5-(1-methyl-1H-pyrazol-4-yl)nicotinamide], the IC50 is more than 1000 nM.
